Results reported in patent publication US20260001849A1, “NOVEL B0AT1 INHIBITOR” (MITSUBISHI TANABE PHARMA CORPORATION, priority 2023, published 2026).
pIC50: −log10 of the molar value.

Molecular target: T1, Human BOAT1 (Homo sapiens, UniProt Q695T7)
T1 construct: expressed in transfected cells
T1 sequence (Q695T7 1-634): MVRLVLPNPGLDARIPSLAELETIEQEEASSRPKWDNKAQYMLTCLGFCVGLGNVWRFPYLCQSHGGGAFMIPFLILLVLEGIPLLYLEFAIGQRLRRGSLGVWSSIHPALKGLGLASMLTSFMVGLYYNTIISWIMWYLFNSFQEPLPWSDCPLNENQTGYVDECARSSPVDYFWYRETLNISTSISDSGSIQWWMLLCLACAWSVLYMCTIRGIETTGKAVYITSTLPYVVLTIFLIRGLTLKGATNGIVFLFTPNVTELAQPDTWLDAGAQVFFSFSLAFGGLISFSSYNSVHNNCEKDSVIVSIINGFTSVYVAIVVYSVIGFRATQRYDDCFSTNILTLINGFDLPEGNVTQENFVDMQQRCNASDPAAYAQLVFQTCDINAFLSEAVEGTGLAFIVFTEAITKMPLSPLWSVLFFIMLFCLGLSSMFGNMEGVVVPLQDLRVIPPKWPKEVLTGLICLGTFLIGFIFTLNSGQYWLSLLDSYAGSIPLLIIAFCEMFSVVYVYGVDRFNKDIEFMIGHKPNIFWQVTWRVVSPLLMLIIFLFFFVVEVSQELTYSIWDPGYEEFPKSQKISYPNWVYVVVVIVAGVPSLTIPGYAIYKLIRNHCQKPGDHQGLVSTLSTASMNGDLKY
Test: hBOAT1 inhibitory test (phenylalanine uptake)
Type: cell-based
Settings: Human BOAT1 stable expression CHO cells; [3H]-L-phenylalanine uptake, phenylalanine 0.25 mM; radioactivity after 100 to 200 min; read-out: hB0AT1 IC50
Protocol: A test compound dissolved in dimethyl sulfoxide (DMSO) was added to a 96 well plate for solid phase radioactivity measurement containing a scintillator at the bottom of the well (final concentration of DMSO 0.5%). DMSO alone as a control and DMSO containing N-(4-bromophenyl)-3,5-dichloro-2-hydroxybenzamide (final concentration […]) for the measurement of BOAT1 non-specific uptake were similarly added at 0.5 μL per well. Human BOAT1 stable expression CHO cells suspended in a buffer (buffer containing 96 mM sodium chloride, 2 mM potassium chloride, 1.8 mM calcium chloride, 1 mM magnesium chloride, 0.01% bovine serum albumin, and 10 mM 2-[4-(2-hydroxyethyl)-1-piperazinyl]ethanesulfonic acid) were added by 90 μL to 75000 cells/well. After standing at ordinary temperature for 30 min or longer, the cells were subjected to a phenylalanine uptake experiment. A buffer containing L-phenylalanine and [3,4,5-3H]-L-phenylalanine was added by 10 μL per well (final concentration of phenylalanine 0.25 mM), and the radioactivity of the plate bottom surface at ordinary temperature was measured with a scintillation counter over time, and the radioactivity value after 100 to 200 min was analyzed.

Structure (SMILES)	pIC50
O=C(O)Cc1cccc2c1CCN(C(=O)CNC(=O)/C=C/c1ccc(C(F)(F)F)cc1)C2 [I-192]	6.40
CNC(=O)Cc1ccc2c(n1)CCN(C(=O)CNC(=O)/C=C/c1ccc(C(F)(F)F)cc1)C2 [I-377]	7.32
O=C(O)CCc1cnn2c1CN(C(=O)CNC(=O)/C=C/c1ccc(C(F)(F)F)cc1)CC2 [I-193]	6.34
COc1cc(CC(=O)OC(C)(C)C)cc2c1CN(C(=O)CNC(=O)/C=C/c1ccc(C(F)(F)F)cc1)CC2 [I-43]	6.15
O=C(/C=C/c1ccc(C(F)(F)F)cc1)NCC(=O)N1CCCC(C23CCC(C2)C3C(=O)O)C1 (stereo not drawn) [I-229]	6.82
O=C(O)CCc1cc2c(s1)CN(C(=O)CNC(=O)/C=C/c1ccc(C(F)(F)F)cc1)CC2 [I-220]	7.00

Second part, the molecule after the results:

pIC50	Structure (SMILES)
6.37	O=C(O)Cc1ccc2c(c1)CCN(C(=O)CNC(=O)/C=C/c1ccc(C(F)(F)F)c(F)c1)C2 [I-189]
7.15	O=C(O)Cc1cc2c(cc1Cl)CN(C(=O)CNC(=O)/C=C/c1ccc(C(F)(F)F)cc1F)CC2 [I-221]
7.36	O=C(O)CCc1cccc2c1CCN2C(=O)CNC(=O)/C=C/c1ccc(C(F)(F)F)cc1 [I-246]
6.24	O=C(O)Cc1ccc2n(c1=O)CCN(C(=O)CNC(=O)/C=C/c1ccc(C(F)(F)F)cc1F)C2 [I-207]
6.81	O=C(/C=C/c1ccc(C(F)(F)F)cc1)NCC(=O)N1CCc2cc(N3CCC(C(=O)O)C3)ccc2C1 (stereo not drawn) [I-160]
6.97	N#Cc1cc2c(cc1CC(=O)O)CCN(C(=O)CNC(=O)/C=C/c1ccc(I)cc1)C2 [I-222]
6.86	O=C(O)COc1cc(Br)c2c(c1)CCN(C(=O)CNC(=O)/C=C/c1ccc(C(F)(F)F)cc1)C2 [I-181]
6.30	COCC1c2ccc(CC(=O)O)cc2CCN1C(=O)CNC(=O)/C=C/c1ccc(C(F)(F)F)cc1 (stereo not drawn) [I-212]
7.05	COC(=O)Cn1nc(C)c2c1CCN(C(=O)CNC(=O)/C=C/c1ccc(C(F)(F)F)cc1)C2 [I-12]
6.77	COc1cc(CC(=O)O)cc2c1CN(C(=O)CNC(=O)/C=C/c1ccc(C(F)(F)F)cc1)CC2 [I-177]
6.97	O=C(O)Cc1cc2c(cn1)CN(C(=O)CNC(=O)/C=C/c1ccc(C(F)(F)F)cc1)CC2 [I-167]
6.62	O=C(O)Cc1ccc2c(c1)CN(C(=O)CNC(=O)/C=C/c1ccc(C(F)(F)F)cc1)C2 [I-142]
6.06	O=C(O)Cc1cnn2c1CN(C(=O)CNC(=O)/C=C/c1ccc(C(F)(F)F)cc1)CC2 [I-179]
7.02	N#Cc1c(CC(=O)O)ccc2c1CCN(C(=O)CNC(=O)/C=C/c1ccc(S(F)(F)(F)(F)F)cc1)C2 [I-152]

Same assay, conditions: Human BOAT1 stable expression CHO cells; phenylalanine uptake, phenylalanine 0.25 mM; read-out: hB0AT1 IC50

Structure (SMILES)	pIC50
O=C(O)CCCN1CCN(C(=O)CNC(=O)/C=C/c2ccc(C(F)(F)F)cc2F)[C@@H](c2ccc(C3CC3)cc2)C1 [I-263]	7.74
CN1CCN(C(=O)CNC(=O)/C=C/c2ccc(C(F)(F)F)cc2F)CC1c1cccc(C(=O)O)c1 (stereo not drawn) [I-258]	5.88
O=C(O)C[C@H]1CCN(C2CCCN(C(=O)CNC(=O)/C=C/c3ccc(C(F)(F)F)cc3F)C2)C1 (stereo partly drawn) [I-361]	6.06
CNC(=O)Cc1nc2c(s1)CN(C(=O)CNC(=O)/C=C/c1ccc(C(F)(F)F)cc1F)CC2 [I-284]	7.60
O=C(O)Cc1ccccc1C1=CCCN(C(=O)CNC(=O)/C=C/c2ccc(C(F)(F)F)cc2F)C1 [I-260]	6.20
O=C(O)CCCN1CCN(C(=O)CNC(=O)/C=C/c2ccc(C(F)(F)F)cc2F)C(c2ccc(Cl)cc2)C1 (single isomer, unassigned) [I-295, 4-[3-(4-chlorophenyl)-4-[2-[[(E)-3-[2-fluoro-4-(trifluoromethyl)phenyl]prop-2-enoyl]amino]acetyl]piperazin-1-yl]butanoic acid]	7.29
O=C(/C=C/c1ccc(C(F)(F)F)cc1F)NCC(=O)N1CCCC(N2CC[C@@H](C(=O)O)C2)C1 (stereo partly drawn) [I-359]	5.95
CC(CCN1C[C@H](c2ccccc2)N(C(=O)CNC(=O)/C=C/c2ccc(C(F)(F)F)cc2F)C[C@H]1C)C(=O)O (stereo partly drawn) [I-345]	5.75
CNC(=O)Cc1cc(CC(=O)O)cc2c1CN(C(=O)CNC(=O)/C=C/c1ccc(C(F)(F)F)cc1F)CC2 [I-336]	6.18
O=C(O)CCCN1CCN(C(=O)CNC(=O)/C=C/c2ccc(C(F)(F)F)cc2F)C(c2cccnc2)C1 (stereo not drawn) [I-403]	5.76
O=C(O)C[C@@H]1CCN(C2CCCN(C(=O)CNC(=O)/C=C/c3ccc(C(F)(F)F)cc3F)C2)C1 (stereo partly drawn) [I-362]	5.85
O=C(O)CCCN1CCN(C(=O)CNC(=O)/C=C/c2ccc(C(F)(F)F)cc2F)C(c2cccc(C3CC3)c2)C1 (stereo not drawn) [I-256]	7.32

Continued, values first:

pIC50	Structure (SMILES)
6.59	CNC(=O)Cn1ncc2c1CN(C(=O)CNC(=O)/C=C/c1ccc(C(F)(F)F)cc1)CC2 [I-283]
5.49	C[C@H]1[C@H](c2ccccc2)N(C(=O)CNC(=O)/C=C/c2ccc(C(F)(F)F)cc2F)CCN1CCCC(=O)O [I-352]
6.63	O=C(O)CCCN1CCN(C(=O)CNC(=O)C=Cc2ccc(C(F)(F)F)cc2F)C(c2nc(-c3ccccc3)no2)C1 (stereo not drawn) [I-402]
7.43	O=C(/C=C/c1ccc(C(F)(F)F)cc1F)NCC(=O)N1CCN(CC2CC(C(=O)O)C2)CC1c1ccc(Cl)cc1 (single isomer, unassigned) [I-297, 3-[[3-(4-chlorophenyl)-4-[2-[[(E)-3-[2-fluoro-4-(trifluoromethyl)phenyl]prop-2-enoyl]amino]acetyl]piperazin-1-yl]methyl]cyclobutane-1-carboxylic acid]

Molecular target: T2, hERG channel (Homo sapiens, UniProt Q12809)
T2 construct: host or cells: CHO cells
Test: hERG channel inhibitory activity, whole-cell patch clamp (auto-patch clamp system)
Type: cell-based
Settings: comparative example compounds of WO 2023/145804, read-out: hERG inhibition IC50
Protocol: Evaluation of hERG (Human Ether-a-go-go Related Gene) Channel Inhibitory Activity
The hERG channel inhibitory activity of the compound of the present invention was measured using CHO cells (B′ SYS GmbH) forcibly expressing hERG channels involved in human rapidly active delayed rectifier potassium current (IKr) by the whole-cell patch clamp method using an auto-patch clamp system (SyncroPatch384PE).
Cell suspension, extracellular fluid, intracellular fluid, and measurement plate (NPC-384 plate) were placed in the auto-patch clamp system, and hERG current measurements were performed using the whole-cell patch clamp method. The voltage protocol was set to a holding potential of −80 mV, with a depolarizing pulse preceded by −90 mV (100 ms) and followed by −80 mV (100 ms).
The depolarizing pulse was […] (500 ms), and then the hERG peak current value obtained during the ramp phase was measured when the voltage was lowered to −80 mV over 100 ms. The protocol was applied at 5-second intervals for 5 minutes for each concentration.
SyncroPatch software (manufactured by Nanion) was used for data analysis. Four concentrations were applied incrementally for each test substance, and the average hERG Peak current value obtained from the last three stimuli of each applied concentration was used as the evaluation data. The IC50 value was calculated from the inhibition rate of the current at each concentration of each test substance relative to the pre-application value using Hill's equation (Hill equation) using the relevant software.
The same experiments were also performed using the example compounds described in WO 2023/145804 as comparative example compounds 1-4.

T2 sequence (Q12809 whole entry): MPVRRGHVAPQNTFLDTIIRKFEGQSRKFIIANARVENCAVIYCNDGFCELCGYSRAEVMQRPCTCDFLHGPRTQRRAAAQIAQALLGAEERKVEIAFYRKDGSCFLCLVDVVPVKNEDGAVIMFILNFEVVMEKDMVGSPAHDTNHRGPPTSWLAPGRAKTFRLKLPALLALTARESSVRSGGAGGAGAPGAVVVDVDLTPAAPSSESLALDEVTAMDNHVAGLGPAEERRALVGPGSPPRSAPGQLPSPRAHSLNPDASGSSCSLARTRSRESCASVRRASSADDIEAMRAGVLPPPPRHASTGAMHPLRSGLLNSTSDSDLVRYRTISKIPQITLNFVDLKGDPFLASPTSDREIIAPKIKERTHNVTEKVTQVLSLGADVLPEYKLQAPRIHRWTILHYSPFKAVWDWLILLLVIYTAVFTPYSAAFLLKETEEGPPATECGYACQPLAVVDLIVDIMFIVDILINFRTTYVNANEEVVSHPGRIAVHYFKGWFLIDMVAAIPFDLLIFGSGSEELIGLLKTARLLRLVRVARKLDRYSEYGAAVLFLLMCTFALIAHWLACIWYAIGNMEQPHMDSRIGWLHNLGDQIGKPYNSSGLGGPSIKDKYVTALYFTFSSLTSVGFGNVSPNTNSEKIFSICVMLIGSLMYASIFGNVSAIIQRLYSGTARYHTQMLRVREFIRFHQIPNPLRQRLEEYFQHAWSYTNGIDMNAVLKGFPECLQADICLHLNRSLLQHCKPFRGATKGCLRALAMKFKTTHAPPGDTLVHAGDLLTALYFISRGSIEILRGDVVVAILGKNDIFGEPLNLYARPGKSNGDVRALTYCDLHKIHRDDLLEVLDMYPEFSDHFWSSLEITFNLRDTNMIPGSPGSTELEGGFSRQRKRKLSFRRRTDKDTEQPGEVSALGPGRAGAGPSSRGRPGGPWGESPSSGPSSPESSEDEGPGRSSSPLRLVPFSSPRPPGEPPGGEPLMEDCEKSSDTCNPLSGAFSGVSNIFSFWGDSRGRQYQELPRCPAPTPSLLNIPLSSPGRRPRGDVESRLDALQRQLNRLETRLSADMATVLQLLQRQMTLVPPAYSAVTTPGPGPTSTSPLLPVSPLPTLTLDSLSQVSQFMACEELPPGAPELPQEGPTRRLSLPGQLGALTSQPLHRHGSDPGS

Structure (SMILES)	pIC50
CN1CCN(C(=O)CNC(=O)/C=C/c2ccc(C(F)(F)F)cc2)CC1 [Comparative Example compound 3, reference compound]	5.44
CN1CCN(C(=O)CNC(=O)/C=C/c2ccc(C(F)(F)F)cc2)C(c2ccccc2)C1 (stereo not drawn) [Comparative Example compound 1, reference compound]	5.68
O=C(/C=C/c1ccc(C(F)(F)F)cc1)NCC(=O)N1CCNCC1 [Comparative Example compound 2, reference compound]	5.06

Same assay, conditions: read-out: hERG IC50

Structure (SMILES)	pIC50
C[C@@H]1CN(CCCC(=O)O)[C@@H](C)CN1C(=O)CNC(=O)/C=C/c1ccc(C(F)(F)F)cc1F [I-235]	< 4.52
COc1cc2c(cc1CC(=O)O)CCN(C(=O)CNC(=O)/C=C/c1ccc(C(F)(F)F)cc1)C2 [I-176]	< 4.52
O=C(/C=C/c1ccc(C(F)(F)F)cc1)NCC(=O)N1CCc2cc(C3(C(=O)O)CC3)ccc2C1 [I-166]	< 4.52
O=C(O)CCCN1CCN(C(=O)CNC(=O)/C=C/c2ccc(C(F)(F)F)cc2F)CC1C1CCCCC1 (stereo not drawn) [I-271]	4.79
O=C(O)Cc1cc2c(s1)CCN(C(=O)CNC(=O)/C=C/c1ccc(C(F)(F)F)cc1)C2 [I-178]	< 4.52
O=C(O)CCCN1CCN(C(=O)CNC(=O)/C=C/c2ccc(C(F)(F)F)cc2F)C(c2ccc(Cl)c(F)c2)C1 (stereo not drawn) [I-267]	< 4.52
O=C(O)CCCN1CCN(C(=O)CNC(=O)/C=C/c2ccc(C(F)(F)F)cc2F)CC1C(F)(F)F (stereo not drawn) [I-198]	< 4.52
O=C(/C=C/c1ccc(C(F)(F)F)cc1F)NCC(=O)N1CCCC(c2ccccc2C(=O)O)C1 (stereo not drawn) [I-253]	4.58
C[C@H]1CN(C(=O)CNC(=O)/C=C/c2ccc(C(F)(F)F)cc2F)[C@@H](c2ccccc2)CN1CCCC(=O)O [I-252]	< 4.52
